Data reported in EP0111455A2, “Unsaturated lactones” (CIBA-GEIGY AG, priority 1982, dated 1984).

What was measured:
[1] = tested on: isolierten, elektrisch gereizten, linken Vorhöfen des Meerschweinchens; test: positive inotropic effect on isolated, electrically stimulated left atria (method after J.V. Levy); assay type: cell-based, Meerschweinchen; conditions: for IC25 / IC50: negative inotropic effect, same set-up; for IC25: read-out: Konzentration für Reduktion der Kontraktionskraft um 25 %; for IC50: read-out: Konzentration für Reduktion der Kontraktionskraft um 50 %; for Kontraktionskraft (Art der Wirkung): qualitative, exclusively a decrease of contraction force; for Emax: Cavia porcellus, extent of positive inotropic effect in % of the maximal increase of contraction force by Isoproterenol, read-out: Ausmass der Wirkung (% von ISOmax); for EC50: concentration for half of the maximal positive inotropic effect, left atria, guinea pig, read-out: Wirksamkeit EC50
Text: (§1) Die Steigerung der myocardialen Kontraktilität, d.h. die positiv inotrope Wirkung, kann z.B. anhand von Versuchsanordnungen nachgewiesen werden, die sich auf die von J.V. Levy, Isolated Atrial Preparations in Methods in Pharmacology, Bd. 1, S. 77 bis 104 (Ed. A. Schwartz; Appleton-Century-Crofts, New York; 1971),beschriebene Methodik, stützen. So steigern die Verbindungen der Formel I und Salze von solchen Verbindungen mit salzbildenden Eigenschaften in Konzentrationen ab etwa 0,1 umol/L an isolierten, elektrisch gereizten, linken Vorhöfen des Meerschweinchens (in vitro-Versuchsanordnung) die maximale Kontraktionskraft (peak developed tension). Das Ausmass (efficacy) dieser positiv inotropen Wirkung ist dabei unterschiedlich, kann jedoch bis zu 90 % der mit Isoproterenol maximal erreichbaren Wirkung betragen. Ferner steigern sie in Konzentrationen ab etwa 0,3 µ mol/L an isolierten, spontan schlagenden, rechten Vorhöfen des Meerschweinchens die Kontraktionsfrequenz. Das Ausmass (efficacy) dieser positiv chronotropen Wirkung ist dabei unterschiedlich, kann jedoch bis zu 60% der mit Isoproterenol maximal erreichbaren Wirkung betragen.
In der folgenden Tabelle werden die Konzentrationen (in µmol/L) für Verbindungen der Formel I angegeben, die notwendig sind, um die Hälfte der maximalen positiv inotropen Wirkung zu erzielen (EC50). Das Ausmass der Wirkung wird in % der maximalen, mittels Isoproterenol in dieser Versuchsanordnung bewirkten Steigerung der Kontraktionskraft (ISOmax.) angegeben; diejenige von Isoproterenol beträgt +2.1 +0.1 g (x ± SK; N=30).
Im Gegensatz dazu weist z.B. der obgenannte 2-Cyan-6-methyl-4-(3-nitrophenyl)-1,4-dihydro-pyridin-3,5-dicarbonsäure-5-isopropylester-3-methylester in der gleichen Versuchsanordnung eine Reduktion der Kontraktionskraft um 25 % bei einer Konzentration von 1 µmol/L und um 50 % bei einer solchen von 8 µmol/L auf, während Nifedipin bei einer Konzentration von 0.1 µmol/L eine 25 %ige und von 0.4 µmo 1/1 eine 50 Zige Reduktion der myocardialen Kontraktionskraft bewirkt.

narkotisierten Katze = test: arterial blood pressure in the anaesthetised cat, intravenous; assay type: in vivo; conditions: qualitative, i.v., doses from about 0,001 mg/kg
Experimental: An der narkotisierten Katze führen die Verbindungen der Formel I und Salze von solchen Verbindungen mit salzbildenden Eigenschaften bei intravenöser Verabreichung in Dosen ab etwa 0,001 mg/kg zu einer Steigerung des arteriellen Blutdrucks.

[2] = tested on: isolierten, spontan schlagenden, rechten Vorhöfen des Meerschweinchens; test: positive chronotropic effect on isolated, spontaneously beating right atria; assay type: cell-based, Meerschweinchen; conditions: qualitative; exclusively a decrease of contraction frequency
Text: as §1

männliche Ratten = test: central nervous system stimulation (behaviour) in male rats, i.p.; assay type: in vivo; conditions: 50 mg/kg i.p. as solution in Polyäthylenglycol 400; during 1 hour, especially 30 minutes after administration
Experimental: Die Verbindungen der Formel I sowie Salze von solchen Verbindungen mit salzbildenden Eigenschaften wirken ferner aktivierend, insbesondere stimulierend, auf das Zentralnervensystem. So bewirkt z.B. die i.p.-Verabreichung von 50 mg/kg 4-(2-Difluormethoxyphenyl)-2-methyl-5-oxo-1,4,5,7-tetrahydro-fuo[3,4-b]pyridin-3-carbonsäureäthylester als Lösung in Polyäthylenglycol 400 an männliche Ratten während 1 Stunde, insbesondere während 30 Minuten nach Verabreichung Schnuppern, Kau- und Putzaktivität, sporadische. Schüttelbewegungen von Kopf und Körper sowie Vorderpfoten-Klonus. Aufgrund dieser Eigenschaften erscheinen die Verbindungen der Formel I sowie Salze von solchen Verbindungen mit salzbildenden Eigenschaften für die Behandlung retardierter Depressionen verschiedenen Schweregrades, von psychischen, von fehlendem Antrieb und Initiative begleiteten Störungen sowie von hypokinetischen, geriatrischen Patienten geeignet.

narkotisierten Hund = test: haemodynamics and blood glucose in the anaesthetised dog, intravenous; assay type: in vivo; conditions: qualitative
Experimental: Im narkotisierten Hund (in vivo-Versuchsanordnung) bewirken die Verbindungen der Formel I und Salze von solchen Verbindungen mit salzbildenen Eigenschaften bei intravenöser Verabreichung in Dosen ab etwa 1 mg/kg ebenfalls eine Steigerung der myokardialen Kontraktilität (Zunahme der maximalen Druckanstiegsgeschwindigkeit dP/dt in der max Aorta) um etwa 40 bis etwa 60 %, sowie eine Steigerung des arteriellen Blutdrucks um etwa 10 bis etwa 30 %, ferner eine Abnahme der GlucoseKonzentration im Blut um etwa 10 bis etwa 30 %.

| SMILES | Emax [1] | EC50 [1] | also measured |
| --- | --- | --- | --- |
| COC(=O)C1=C(C#N)NC(C)=C(C(=O)OC(C)C)C1c1cccc([N+](=O)[O-])c1 (centres unmarked) [2-Cyan-6-methyl-4-(3-nitrophenyl)-1,4-dihydro-pyridin-3,5-dicarbonsäure-5-isopropylester-3-methylester, reference compound] | – | – | IC25 [1]: 1000 nM; IC50 [1]: 8000 nM; Kontraktionskraft (Art der Wirkung) [1]: negativ inotrope Wirkung; arterieller Blutdruck (Art der Wirkung) (narkotisierten Katze): Senkung des arteriellen Blutdrucks; Kontraktionsfrequenz (Art der Wirkung) [2]: negativ chronotrope Wirkung |
| CCOC(=O)C1=C(C)NC2=C(C(=O)OC2)C1c1ccccc1OCCSC (centres unmarked) [2-Methyl-4-[2-(2-methylthioäthoxy)-phenyl]-5-oxo-_ 1,4,5,7-tetrahydro-fnro[3,4-b]pyridin-3-carbonsäure-äthylester] | 75% | 380 nM | – |
| CCOC(=O)C1=C(C)NC2=C(C(=O)OC2)C1c1ccccc1OC(F)(F)C(F)Cl (centres unmarked) [4-[2-(2-Chlor-1,1,2-trifluor-äthoxy)-phenyl]-2-methyl-5-oxo-1,4,5,7-tetrahydro-furo-[3,4-b]pyridin-3-carbonsäureäthylester] | 75% | 1000 nM | – |
| CC1=C(C#N)C(c2ccccc2OC(F)F)C2=C(COC2=O)N1 (centres unmarked) [-CN; 2-Difluormethoxy-phenyl, 4-(2-Difluormethoxy-phenyl)-2-methyl-5-oxo-1,4,5,7-tetrahydro-furo[3,4-b]pyridin-3-carbonitril] | 68% | 63000 nM | – |
| COCCOC(=O)C1=C(C)NC2=C(C(=O)OC2)C1c1ccccc1OC(F)F (centres unmarked) [-COOC2H4OCH3; 2-Difluormethoxy-phenyl, 4-(2-Difluormethoxyphenyl)-2-methyl-5-oxo-1,4,5,7-tetrahydro-furo[3,4-b]pyridin-3-carbonsäure-(2-methoxyäthyl)-ester] | 90% | 5300 nM | – |
| CCOC(=O)C1=C(C)NC2=C(C(=O)OC2)C1c1cccc(OC(F)F)c1OC(F)F (centres unmarked) [-COOC2H5; 2,3-Di-difluor-methoxyphenyl, 4-[2,3 Di-(difluormethoxy)-phenyl]-2-methyl-5-oxo-1,4,5,7-tetrahydro-furo[3,4-b]pyridin-3-carbonsäure-äthylester] | 14% | – | – |
| CCOC(=O)C1=C(C)NC2=C(C(=O)OC2)C1c1ccccc1OCCOC (centres unmarked) [-COOC2H5; 2-(2-Methoxyäthoxy)-phenyl, 2 Methyl-4-[2-(2-methoxyäthoxy)-phenyl]-5-oxo-1,4,5,7-tetrahydro-furo[3,4-b]pyridin-3-carbonsäure-äthylester] | 80% | 3800 nM | – |
| CCOC(=O)C1=C(C)NC2=C(C(=O)OC2)C1c1ccccc1OC(F)F (centres unmarked) [-COOC2H5; 2-Difluormethoxy-phenyl, 4-(2-Difluormethoxy-phenyl)-2-methyl-5-oxo-1,4-5,7-tetrahydro-furo[3,4-b]pyridin-3-carbonsäureäthylester] | 65% | 700 nM | Wirkung auf das Zentralnervensystem (Verhalten) (männliche Ratten): Schnuppern, Kau- und Putzaktivität, sporadische. Schüttelbewegungen von Kopf und Körper sowie Vorderpfoten-Klonus |
| CCOC(=O)C1=C(C)NC2=C(C(=O)OC2)C1c1ccccc1SC(F)F (centres unmarked) [-COOC2H5; 2-Difluormethyl-mercaptophenyl, 4-(2-Difluormethylmercaptophenyl)-2-methyl-5-oxo-1,4,5,7-tetrahydro-furo[3,4-b]pyridin-3-carbonsäure-äthylester] | 80% | 1000 nM | – |
| CCOC(=O)C1=C(C)NC2=C(C(=O)OC2)C1c1cccc(OC(F)F)c1 (centres unmarked) [-COOC2H5; 3-Difluormethoxy-phenyl, 4-(3-Difluormethoxyphenyl)-2-methyl-5-oxo-1,4,5,7-tetrahydro-furo [3,4-b]pyridin-3-carbonsäure-äthylester] | 65% | 4800 nM | – |
| CCOC(=O)C1=C(C)NC2=C(C(=O)OC2)C1c1ccc(OC(F)F)cc1 (centres unmarked) [-COOC2H5; 4-Difluormethoxy-phenyl, 4-(4-Difluormethoxy-phenyl)-2-methyl-5-oxo-1,4,5,7-tetrahydro-furo[3,4-b]pyridin-3-carbonsäureäthylester] | 10% | – | – |
| COC(=O)C1=C(C)NC2=C(C(=O)OC2)C1c1ccccc1OC(F)F (centres unmarked) [-COOCH3; 2-Difluormethoxy-phenyl, 4-(2-Difluormethoxyphenyl)-2-methyl-5-oxo-l,4,5,7-tetrahydro-furo[3,4-b]pyridin-3-carbonsäure-methylester] | 70% | 3700 nM | – |
| CC1=C(C(=O)OC(C)C)C(c2ccccc2OC(F)F)C2=C(COC2=O)N1 (centres unmarked) [-COOCH(CH3)2; 2-Difluormethoxy-phenyl, 4-(2-Difluormethoxyphenyl)-2-methyl-5-oxo-1,4,5,7-tetra-hydro-furo[3,4-b]pyridin-3-carbonsäure-isopropylester] | 70% | 1200 nM | – |
| CC(C)NCC(O)c1ccc(O)c(O)c1 (centres unmarked) [Isoproterenol, reference compound] | – | – | maximale Steigerung der Kontraktionskraft (ISOmax.) ([1]; x ± SK, N=30): 2.1 ± 0.1 g |
| COC(=O)C1=C(C)NC(C)=C(C(=O)OC)C1c1ccccc1[N+](=O)[O-] [Nifedipin, 2,6-Dimethyl-4-(2-nitrophenyl)-1,4-dihydro-pyridin-3,5-dicarbonsäure-dimethylester, reference compound] | – | – | IC25 [1]: 100 nM; IC50 [1]: 400 nM; Kontraktionskraft (Art der Wirkung) [1]: negativ inotrope Wirkung; arterieller Blutdruck (Art der Wirkung) (narkotisierten Katze): Senkung des arteriellen Blutdrucks; Kontraktionsfrequenz (Art der Wirkung) [2]: negativ chronotrope Wirkung; Blutdruck (Art der Wirkung) (narkotisierten Hund): Senkung des Blutdrucks |
